Like-named read-outs stand apart in the source and are kept apart here.
How the values were obtained:
N370S GBA = N370S GBA (Homo sapiens (Human), UniProt P04062, N370S); assay: Chaperone experiment using isofagomine in N370S GBA fibroblasts; type: cell-based; conditions: 7 d, 0, 10, 30 and 300 nM
GBA [1] = molecular target: T1, GBA (Homo sapiens (Human), UniProt P04062, R534H); assay: Reversibility of isofagomine competition for active site labeling; type: biochemical; conditions: pH 5.2, wash before labeling with MDW933 (10 nM for 15 min)
T1 sequence (P04062 40-536 R534H): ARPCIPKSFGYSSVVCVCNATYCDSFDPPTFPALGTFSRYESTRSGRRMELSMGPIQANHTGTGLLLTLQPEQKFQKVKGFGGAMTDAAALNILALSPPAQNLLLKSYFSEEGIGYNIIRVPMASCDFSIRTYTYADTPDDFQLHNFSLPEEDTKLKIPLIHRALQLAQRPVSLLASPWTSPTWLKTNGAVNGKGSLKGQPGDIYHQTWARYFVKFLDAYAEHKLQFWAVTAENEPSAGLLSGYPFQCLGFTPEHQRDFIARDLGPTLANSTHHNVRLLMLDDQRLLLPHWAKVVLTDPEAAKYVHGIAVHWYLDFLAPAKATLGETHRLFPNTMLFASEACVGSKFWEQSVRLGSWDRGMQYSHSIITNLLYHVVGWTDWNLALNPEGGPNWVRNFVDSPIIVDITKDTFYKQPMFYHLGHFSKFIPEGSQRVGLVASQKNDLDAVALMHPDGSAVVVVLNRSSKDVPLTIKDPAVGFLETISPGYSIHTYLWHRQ

GBA [2] = molecular target: T1, GBA; assay: GBA enzyme activity assay with 4-methylumbelliferyl β-D-glucopyranoside, inhibitor preincubated 30 min (apparent IC50); type: biochemical
GBA1 = GBA1 (Homo sapiens (Human), UniProt P04062); assay: Kinetic constants of GBA1 inhibition (Table 2); type: biochemical; conditions: Table 2 kinetic constants
GBA1, sequence (P04062 40-536): as the sequence (P04062 40-536 R534H) above, with H495R counted along it

fibroblasts = assay: Toxicity monitoring by live-cell imaging of fibroblasts; type: cell-based, human; conditions: after 100 h of exposure
Procedure: (§1) We next studied the labeling of GBA by MDW941 in intact fibroblasts using time-lapse microscopy. […] As a control, matched mice received the buffer solution intravenously. […] In addition to GBA, MDW933 clearly labeled other proteins that occur in the intestine in the mouse.
With the 37° C., 10% CO2 incubator enclosing the microscope, […] microscopy with an N2.1 filter block and phase-contrast brightfield microscopy (Leica IR-BE with Z-motor drive and a Plan APO 63×/1.40 oil immersion objective (Leica Microsystems, Rijswijk, The Netherlands), equipped with a KX85 camera, Apogee Instruments, Auburn, Calif., USA). […] An auto-focus routine was applied during acquisition. Images were analyzed using TimeLapseAVI 5.1.4 software (©Ron Hoebe, CMO, AMC, University of Amsterdam, The Netherlands; R.A.Hoebe@amc.uva.nl).

GBA [3] = molecular target: T1, GBA; assay: Continuous substrate release assay for inhibition constants; type: biochemical; conditions: for Ki: equilibrium constant for initial binding; for Ki / ki: reported with s.e.m.; for ki: rate constant; for ki/Ki: relative rate constant
From the text: Previously discontinuous methods have been used to determine the inhibition constants of glycosidase inhibitors. […] Therefore the inhibition constants have been determined in a continuous substrate assay which was first described in 1982 (2) and has recently been reappraised in 2010 (3). In these experiments, inhibition of the enzyme and hydrolysis of the substrate proceed concurrently making the situation slightly more complex than the discontinuous (FIG. 39 Scheme 2). The time-dependent interaction of inhibitor (I) with free β-glucosidase (E) was considered to occur in separate stages (A). A rapid reversible interaction is followed by a slower, irreversible reaction that transforms the reversible enzyme-inhibitor complex (EI) into an irreversible enzyme-inhibitor complex (EI*) (FIG. 39 Scheme 2). Progress curves were obtained (FIG. 28a) and apparent rate constant k′ was plotted versus the concentration (FIG. 28b) to obtain estimates of the Ki (equilibrium constant) and ki (rate constant)
To 100 μL McIlvaine buffer (pH 5.2, 0.2% sodium taurocholate, 0.1% Triton X-100) containing 4-methylumbelliferyl β-D-glucoside (7.5 mM) in Greiner flat bottom black 96-well plate was added 5 μL inhibitor (25× stock in DMSO). The resulting mixture was preincubated at 37° C. for 15 min in a TECAN GENios microplate reader. GBA (2 ng) in McIlvaine buffer (20 μL pH 5.2, 0.2% sodium taurocholate, 0.1% Triton X-100) was preheated to 37° C. for 15 min before being added to the substrate mix. The resulting solution was mixed by horizontal shaking for 15 sec, after which release 4-methylumbelliferyl measured with a TECAN GENios platereader (λex 340 nm and λem 465 nm) for the indicated time. Bleaching of the fluorophore, which was observed during the assay, was corrected by subtracting blanks (100 μL substrate buffer, 5 μL DMSO, 20 μL McIlvaine buffer). Apparent rate constants k′ were obtained by fitting the resulting progress curves (FIG. 28A) to the one-phase association equitation y (y max y0)(1−exp^−kt)yo+in GraphPad Prism version 5.00 for Windows, GraphPad Software, San Diego Calif. USA, www.graphpad.com. Measurements were performed in nine fold and plotting of the obtained k′ values versus [^I0] yielded rectangular hyperbolar functions (FIG. 28B).
[formula] estimates of Ki app and ki were obtained. The Ki value in the absence of substrate was obtained by correcting the Ki app with […]

GBA [4] = molecular target: T2, GBA (Homo sapiens (Human), UniProt P04062); assay: Time-lapse microscopy of GBA labeling in intact fibroblasts; type: cell-based; conditions: 5 nM
T2 sequence (P04062 40-536): as the sequence (P04062 40-536 R534H) above, with H495R counted along it
Procedure: as §1
With the 37° C., 10% CO2 incubator enclosing the microscope, cells were imaged every 5 min for 2 hours simultaneously using fluorescence microscopy with an N2.1 filter block and phase-contrast brightfield microscopy (Leica IR-BE with Z-motor drive and a Plan APO 63×/1.40 oil immersion objective (Leica Microsystems, Rijswijk, The Netherlands), equipped with a KX85 camera, Apogee Instruments, Auburn, Calif., USA). […] An auto-focus routine was applied during acquisition. Images were analyzed using TimeLapseAVI 5.1.4 software (©Ron Hoebe, CMO, AMC, University of Amsterdam, The Netherlands; R.A.Hoebe@amc.uva.nl).

GBA [5] = molecular target: T1, GBA; assay: Competition assay for labeling of recombinant GBA with MDW933; type: biochemical; conditions: 2 mM, 30 min
GBA [6] = molecular target: T2, GBA; assay: Fluorescence microscopy of probe-labeled fibroblasts; type: cell-based; conditions: 5 nM, 2 h
Procedure: We studied in situ labeling of GBA in cells using fluorescence-activated cell sorting (FACS) analysis. We first preincubated cells in the absence or presence of CBE and subsequently incubated the cells with a subsaturating or an excess amount of the green fluorescent probe 5. […] These positive results prompted us to analyze labeling of the cells with fluorescence microscopy (FIG. 25c-f). […] We also detected GBA protein by indirect immunofluorescence using the specific anti-GBA monoclonal antibody 8E4 (ref. 29). Using multispectral image analysis, we could specifically distinguish the respective fluorescent emission spectra (FIG. 25d-e) from autofluorescent background (FIG. 25c). […] As probes with a hydrophobic BODIPY moiety might nonspecifically be retained in membranes, in particular the plasma membrane, we studied this possibility more closely. […] These control probes did inhibit GBA in vitro with IC^50 values of 41 and 95 μM, respectively. However, inhibition is presumably reversible.
Fibroblasts were cultured on glass slides. […] Next, cells were washed, fixed with 3% (v/v) paraformaldehyde in PBS for 15 min, washed and incubated first with 0.05% (w/v) saponine for 15 min, next with 0.1 mM NH4Cl in PBS for 10 min and then with 3% (w/v) bovine serum albumin in PBS for 1 h. Next, the slides were incubated with anti-GBA monoclonal antibody 8E4 (1:500). […]

lactase = assay: Lactose competition of MDW933 labeling in intestinal homogenates; type: biochemical, mouse; conditions: lactose 250 mM
From the text: FIG. 32 Indenfication of the 160 kDa protein. […] (b) Quantification of the observed fluorescent signal. Data represent mean values±s.d.

[7] = rec. GBA1, 30 min, 37 C., pH 5.2 + Tch, Tr, read-out: Apparent IC50 (nM) rec. GBA1: 30 min, 37 C., pH 5.2 + Tch, Tr
[8] = recombinant GBA, in vitro, read-out: apparent half-maximal inhibitory concentration (IC50)

N370S GBA, sequence (P04062 40-536 N409S): as the sequence (P04062 40-536 R534H) above, with N370S, H495R counted along it

| SMILES | Ki (GBA1) [nM] | Ki (GBA [3]) [nM] | ki (GBA [3]) [min⁻¹] | ki/Ki (GBA [3]) [M⁻¹ s⁻¹] | IC50 (GBA [2]; [8]) [nM] | also measured |
| --- | --- | --- | --- | --- | --- | --- |
| OC[C@H]1CNC[C@@H](O)[C@@H]1O [isofagomine] | – | – | – | – | – | GBA enzyme activity in cell homogenates (N370S GBA): modest isofagomine dose-dependent increase; fluorescent MDW941-labeled GBA quantified on gel (N370S GBA): modest dose-dependent increase; reversibility of competition for the active site (GBA [1]): fully reversible |
| COc1ccc(C2=[N+]3C(=C(CCCCc4cn(C[C@@H]5[C@@H](O)[C@H](O)[C@@H](O)[C@@H]6O[C@H]56)nn4)c4ccc(-c5ccc(OC)cc5)n4[B-]3(F)F)C=C2)cc1 [MDW941] | 1.56 | 8 ± 3 | 0.208 ± 0.063 | 418300 | – | IC50 (GBA [2]; FIG. 16, ABPs designed for GBA1, read-out: IC50): 2 nM; IC50 (GBA [2]; recombinant GBA, read-out: apparent half-maximal inhibitory concentration (IC50)): 1.94 ± 0.08 nM; ki (GBA1): 0.0236 min⁻¹; signs of apoptosis or toxicity (fibroblasts): did not show any signs of apoptosis or toxicity; time to maximum labeling (GBA [4]): ≤ 15 min |
| Cc1cc(=O)oc2cc(O[C@@H]3O[C@H](CO)[C@@H](O)[C@H](O)[C@H]3O)ccc12 [4-methylumbelliferyl β-D-glucoside, reference compound] | – | – | – | – | – | Km (GBA [3]): 1200 µM |
| O[C@H]1[C@H](O)[C@@H](O)[C@@H]2O[C@@H]2[C@@H]1O [CBE, Conduritol B-epoxide, reference compound] | 7730 | 53000 ± 10800 | 0.217 ± 0.026 | 67 | – | IC50 (GBA [2]; [7]): 12000 nM; ki (GBA1): 0.0244 min⁻¹; effect of preincubation on labeling with MDW933 (GBA [5]): blocked labeling completely |
| [N-]=[N+]=NC[C@@H]1[C@@H](O)[C@H](O)[C@@H](O)[C@@H]2O[C@H]12 [KY170, (2S,3R,4S,5S)-8-azido-8-deoxy-cyclophellitol] | 83 | 44 ± 7 | 0.035 ± 0.003 | 13200 | 120 ± 4 | IC50 (GBA [2]; [7]): 150 ± 30 nM |
| COc1ccc(C2=[N+]3C(=C(CCCCc4cn(C[C@H]5C=C[C@H](O)[C@@H](O)[C@@H]5O)nn4)c4ccc(-c5ccc(OC)cc5)n4[B-]3(F)F)C=C2)cc1 [MDW1065] | – | – | – | – | 95000 | labeling of fibroblasts (GBA [6]): hardly any detectable labeling |
| CC1=CC(C)=[N+]2C1=C(CCCCc1cn(C[C@H]3C=C[C@H](O)[C@@H](O)[C@@H]3O)nn1)c1c(C)cc(C)n1[B-]2(F)F [MDW1064] | – | – | – | – | 41000 | – |
| OC[C@@H]1[C@@H](O)[C@H](O)[C@@H](O)[C@@H]2O[C@H]12 [Cyclophellitol 3, cyclophellitol, reference compound] | – | 152 ± 26 | 0.078 ± 0.010 | 8570 | 150 ± 9 | – |
| OC[C@H]1O[C@@H](O[C@H]2[C@H](O)[C@@H](O)C(O)O[C@@H]2CO)[C@H](O)[C@@H](O)[C@H]1O (stereo partly shown) [lactose] | – | – | – | – | – | reduction of labeling of the high-molecular weight protein in the intestinal fraction (lactase): < 90% |

Source: US9056847B2, “Activity based probes (ABPs) interacting with glycosidases” (ACADEMISCH MEDISCH CENTRUM BIJ UNIVERSITEIT VAN AMSTERDAM, priority 2010, dated 2015)
